In patent US9877947B2, “C-terminal HSP90 inhibitors to treat pituitary adenomas” (priority 2013, dated 2018):

What was measured:
Format in all cases: cell-based
[1] = test system: GR (glucocorticoid receptor); assay: Evaluation of GR activity (MTV-Luc reporter); conditions: AtT-20 cells, 72 hours, in combination with dexamethasone
Description: AtT-20 cells were treated for 72 hours with different doses of (A) 17-AAG, (B) silibinin, or (C) novobiocin. At the end of the treatment, GR activity was measured by transfection of the reporter construct MTV-luc.
AtT-20 cells (3×10^5) were transfected for 3 hours with 1 μg of the MTV-Luc reporter plasmid in 6-well plates. Cell transfection was performed with SuperFect (Qiagen GmbH). After an overnight incubation in culture medium with 10% fetal calf serum, the cells were treated with different HSP90 inhibitors in combination with dexamethasone. Luciferase activity in cell lysates was measured with a Berthold luminometer after addition of luciferin and ATP. Transfection efficiency was determined using the Rous sarcoma virus-β-gal construct. Data are expressed as the ratio of luciferase activity to β-gal activity.

[2] = test system: GR (glucocorticoid receptor) protein; assay: Western blot, induction of GR degradation; conditions: AtT-20 cells
Description: (§1) AtT-20 cells were treated with (A) 17-AAG, (B) silibinin, or (C) novobiocin. At the end of the treatment, the GR, Cdk1 and actin proteins were detected by Western blot.
(§2) AtT-20 cells in 6-well plates were treated with different HSP90 inhibitors for the times indicated in each experiment. At the end of the treatment, cell lysates were prepared in lysis buffer supplemented with protease and phosphatase inhibitor cocktail (Roche). Samples of the lysates were separated by PAGE and blotted onto membranes using standard western blot procedures with gels and buffers from Invitrogen. After blocking the membranes with 5% non-fat dry milk, primary antibodies against GR (H-300, Santa Cruz), Cdk1 (BD Transduction Laboratories), and actin (Cell Signalling) were added. Anti-mouse and anti-rabbit horseradish peroxidase-conjugated secondary antibodies were used to detect the primary antibodies. The detection was carried out using Lumilight (Roche) or ECL-Plus (Thermo Scientific).

[3] = test system: corticotroph tumor cell line AtT-20; assay: Proliferation assay (WST-1 assay); conditions: 96 hours treatment, different doses, WST-1, vs vehicle = 100%
Description: AtT-20 cells were treated for 96 hours with different doses of (A) 17-AAG, (B) silibinin, or (C) novobiocin.
Cell proliferation was measured with the WST-1 proliferation assay (Roche Applied Science). This assay measures the activity of the mitochondrial succinate dehydrogenase. After 4 days of treatment with different HSP90 inhibitors, the WST-1 reagent was added to AtT-20 cell cultures in 96-well plates to a final dilution of 1:10. The cells were incubated for 2 hours and then the absorbance of the reaction product was measured with an ELISA reader at 440 nm, following the manufacturer's instructions.

Cdk1 = assay: Western blot, Cdk1 degradation; conditions: AtT-20 cells
Description: as §1, §2

[4] = test system: GH3 somatotroph adenoma cells; assay: Evaluation of growth hormone secretion (RIA); conditions: 48 hours
Description: (§3) 10,000 GH3 somatotroph adenoma cells obtained from the American Type Culture Collection (Rockville, Md.) were seeded onto 96-well plates in DMEM with 10% fetal calf serum. After 24 hours the medium was changed and the attached cells were treated with different doses of the HSP90 inhibitors 17-AAG or silibinin, as indicated in the FIG. 11. After 48 hours, culture supernatants were collected and the concentration of growth hormone was measured by RIA.

AtT-20 cells = assay: Evaluation of ACTH secretion (RIA); conditions: for ACTH secretion: 48 hours, plus dexamethasone 100 nM
Description: AtT-20 cells were treated for 48 hours with the glucocorticoid dexamethasone (100 nM) plus different doses of 17-AAG or silibinin, as indicated in the figure. At the end of the treatment, ACTH was measured by RIA.
AtT-20 cells were treated for 72 hours with 10 μM silibinin in combination with different doses of octreotide, as indicated in the figure.
AtT-20 cells were seeded in 96-well plates in cell culture medium containing dexamethasone to mimic the high glucocorticoid concentration in the blood of patients with Cushing's disease. At the end of the treatment, the cell culture supernatants were collected and frozen. ACTH secreted into the cell culture medium was measured by radio-immunoassay (RIA) in comparison with known amounts of ACTH standards diluted in the same medium. […] The bound and free fractions were separated by centrifugation with charcoal and the radioactivity was measured in a beta-counter.

GH3 cells = assay: Cell-viability assay WST-1 (toxicity)
GH3 prolactinoma cells = assay: Evaluation of prolactin secretion (RIA); conditions: 48 hours
Description: as §3, with “prolactinoma” for “somatotroph adenoma”, “in” for “in the”, “10.” for “11.”, “prolactin” for “growth hormone”

[5] = WST-1, growth hormone experiment (Example 07)
[6] = WST-1, prolactin experiment (Example 06)

Structure (SMILES) | transcriptional activity of GR [1] | GR degradation [2] | proliferation of AtT-20 cells [3] | Cdk1 degradation (Cdk1) | growth hormone secretion [4] | ACTH secretion (AtT-20 cells) | toxicity for GH3 cells (GH3 cells; [5]) | toxicity for GH3 cells (GH3 cells; [6]) | prolactin secretion (GH3 prolactinoma cells) | ACTH secretion in combination with octreotide (AtT-20 cells; 72 hours, 10 μM silibinin plus sub-optimal concentrations of octreotide)
CO[C@@H]1[C@@H](OC(N)=O)[C@@H](O)[C@H](Oc2ccc3c(O)c(NC(=O)c4ccc(O)c(CC=C(C)C)c4)c(=O)oc3c2C)OC1(C)C [novobiocin] | increased the transcriptional activity of GR | did not produce this effect | strongly inhibit the proliferation | induce degradation of Cdk1 | – | – | – | – | – | –
C=CCNC1=C2C[C@@H](C)C[C@H](OC)[C@H](O)[C@@H](C)/C=C(\C)[C@H](OC(N)=O)[C@@H](OC)/C=C\C=C(/C)C(=O)NC(=CC1=O)C2=O [17-AAG, 17-N-Allylamino-17-demethoxygeldanamycin] | inhibited this activity | induces GR degradation | strongly inhibit the proliferation | induce degradation of Cdk1 | did not inhibit growth hormone secretion at any of the tested concentrations | has no effect on ACTH secretion | Higher concentrations of 17-AAG were toxic | Higher concentrations of 17-AAG were toxic | minimally inhibited prolactin secretion only at a concentration of 1 μM | –
COc1cc([C@H]2Oc3cc([C@H]4Oc5cc(O)cc(O)c5C(=O)[C@@H]4O)ccc3O[C@@H]2CO)ccc1O [silibinin, (2R,3R)-3,5,7-trihydroxy-2-[(2R,3R)-3-(4-hydroxy-3-methoxyphenyl)-2-(hydroxymethyl)-2,3-dihydrobenzo[b][1,4]dioxin-6-yl]chroman-4-one] | increased the transcriptional activity of GR | did not produce this effect | strongly inhibit the proliferation | induce degradation of Cdk1 | significantly inhibited the secretion of growth hormone | inhibits ACTH secretion | no toxicity was observed, even at high concentrations | no toxicity was observed, even at high concentrations | significantly inhibited the secretion of prolactin | increases the inhibition of ACTH secretion
